In BindingDB's records for patent WO2022104348 (Janssen Pharmaceutica, 2022):

Each compound was assayed against Mitogen-activated protein kinase kinase kinase 14 (Homo sapiens, UniProt Q99558) (assay: Inhibition of auto-phosphorylation of recombinant human NF-kappaB-inducing kinase (NIK/MAP3K14) activity).
Procedure: NIK/MAP3K14 auto-phosphorylation activity was measured using the AlphaScreen (ascreen) format (Perkin Elmer). All compound6 tested were dissolved in dimethyl sulfoxide (DMSO) and further dilutions were made in assay buffer. The final DMSO concentration was 0.7% (v/v) in assays. The assay buffer was 50 mM Tris pH 7.5 containing 1 mM EGTA (ethylene glycol tetraacetic acid), 1 mM DTT (dithiothreitol), 0.1 mM NasVCO4, 5 mM MgCE, and 0.01 % Tween 20. The assays were carried out in 384 well Proxiplates (Perkin Elmer). The incubations consisted of the compound, […] Adenosine-5'-triphosphate (ATP), and 1 nM NIK/MAP3K14. Incubations were initiated by the addition of GST-tagged NIK/MAP3K14 enzyme, carried out for 2 h at 25 °C and terminated by addition of stop buffer containing anti-phospho-IKK Ser176/180 antibody. Protein A Acceptor and Glutathione-Donor bead6 were added before reading using an EnVision Multilabel Plate Reader (Perkin Elmer). The signal obtained in the wells was normalized using high (full enzyme activity, 0.7% DMSO) and low controls (no enzyme activity, 0.7% DMSO, no ATP). IC50 s were determined by fitting a sigmoidal curve to % inhibition of control versus Log compound concentration.

Sequence of Mitogen-activated protein kinase kinase kinase 14 (Q99558 whole entry): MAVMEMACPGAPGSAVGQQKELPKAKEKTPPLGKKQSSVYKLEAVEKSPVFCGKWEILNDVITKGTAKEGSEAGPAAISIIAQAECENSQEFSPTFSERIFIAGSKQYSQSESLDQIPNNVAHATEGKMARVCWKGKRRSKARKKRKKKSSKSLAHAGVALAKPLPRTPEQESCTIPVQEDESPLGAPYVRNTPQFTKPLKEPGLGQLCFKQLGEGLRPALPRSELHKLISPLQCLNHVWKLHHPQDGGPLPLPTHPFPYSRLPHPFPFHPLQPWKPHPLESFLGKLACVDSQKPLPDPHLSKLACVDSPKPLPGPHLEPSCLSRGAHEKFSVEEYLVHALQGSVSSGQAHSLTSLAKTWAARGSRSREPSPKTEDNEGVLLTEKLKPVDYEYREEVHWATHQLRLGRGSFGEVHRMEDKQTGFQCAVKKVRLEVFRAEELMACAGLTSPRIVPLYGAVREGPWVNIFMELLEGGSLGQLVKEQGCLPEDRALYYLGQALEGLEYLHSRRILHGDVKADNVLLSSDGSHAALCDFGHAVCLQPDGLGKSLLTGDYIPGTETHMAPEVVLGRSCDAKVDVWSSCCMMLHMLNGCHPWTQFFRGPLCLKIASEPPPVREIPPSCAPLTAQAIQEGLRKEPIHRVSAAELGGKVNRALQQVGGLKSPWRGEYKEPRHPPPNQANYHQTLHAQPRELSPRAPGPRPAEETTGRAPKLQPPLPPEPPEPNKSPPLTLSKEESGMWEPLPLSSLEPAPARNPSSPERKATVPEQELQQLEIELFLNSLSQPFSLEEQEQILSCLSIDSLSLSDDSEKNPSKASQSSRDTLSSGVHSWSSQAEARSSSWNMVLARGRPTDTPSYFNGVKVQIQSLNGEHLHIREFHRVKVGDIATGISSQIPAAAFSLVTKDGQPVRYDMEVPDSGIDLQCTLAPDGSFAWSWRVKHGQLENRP

SMILES	IC50 [nM]
CN1CC[C@@](O)(c2cccc(-c3nc(-c4c[nH]c5ncccc45)cs3)c2)C1=O [WO2022104348, Example 8]	< 100
C[C@](O)(c1cccc(-c2csc(-c3c[nH]c4nccnc34)n2)c1)c1ncc[nH]1 [WO2022104348, Example 78]	> 500
CN1CC[C@@](O)(c2cccc(-c3nc(-c4c[nH]c5ncccc45)sc3C#N)c2)C1=O [WO2022104348, Example 98]	> 500
O[C@@]1(c2cccc(-c3csc(-c4c[nH]c5nccnc45)n3)c2)CCn2ccnc21 [WO2022104348, Example 41]	< 100
O[C@@]1(c2cccc(-c3csc(-c4c[nH]c5ncccc45)n3)c2)C=Cc2cccnc21 [WO2022104348, Example 33]	< 100
CN1CC[C@@](O)(c2cccc(-c3nc(-c4cccc5[nH]ncc45)cs3)c2)C1=O [WO2022104348, Example 131]	> 500
CC1(C)Cc2cccnc2[C@@]1(O)c1cccc(-c2csc(-c3c[nH]c4ncccc34)n2)c1 [WO2022104348, Example 35]	> 500
Cc1ccnc2[nH]cc(-c3nc(-c4cccc([C@]5(O)CCn6ccnc65)c4)cs3)c12 [WO2022104348, Example 87]	< 100
CN1CC[C@@](O)(c2cccc(-c3nc(-c4ccnc5[nH]ccc45)cs3)c2)C1=O [WO2022104348, Example 127]	< 100
O[C@@H]1C[C@](O)(c2cccc(-c3csc(-c4c[nH]c5ncccc45)n3)c2)c2ncccc21 [WO2022104348, Example 104]	> 500
CN1C(=O)[C@@](O)(c2cccc(-c3csc(-c4c[nH]c5ncccc45)n3)c2)c2ncccc21 [WO2022104348, Example 91]	> 500
N#Cc1cnc2[nH]cc(-c3nc(-c4cccc([C@]5(O)Cc6nccn6C5)c4)cs3)c2c1 [WO2022104348, Example 26]	< 100
CN1CC[C@@](O)(c2cccc(-c3csc(-c4c[nH]c5ncc(C(=O)O)cc45)n3)c2)C1=O [WO2022104348, Example 51]	< 100
O[C@@]1(c2cccc(-c3csc(-c4c[nH]c5ncccc45)n3)c2)COc2cccnc21 [WO2022104348, Example 85]	> 500
CN1CC[C@@](O)(c2cccc(-c3cnc(-c4c[nH]c5ncccc45)n3C)c2)C1=O [WO2022104348, Example 120]	> 500
CN1CCC[C@](O)(c2cccc(-c3csc(-c4c[nH]c5nccnc45)n3)c2)C1=O [WO2022104348, Example 55]	> 500
CN1CC[C@@](O)(c2cccc(-c3cc(-c4c[nH]c5ncccc45)co3)c2)C1=O [WO2022104348, Example 115]	> 500
O[C@]1(c2cccc(-c3csc(-c4c[nH]c5ncccc45)n3)c2)Cc2nccn2C1 [WO2022104348, Example 10]	< 100
